Laboratory results reported in patent publication US5482967A, “Condensed heterocyclic compounds, their production and use” (Takeda Chemical Industries, Ltd., priority 1992, dated 1996).

target: T1, acyl-CoA:cholesterol acyl transferase (ACAT) (Rattus norvegicus, UniProt Q7TQM4); test: Inhibitory action against acyl-CoA:cholesterol acyl transferase (ACAT), formation of labeled cholesterol ester, small intestine mucosal microsome fraction; assay type: biochemical, male Sprague-Dawley rat; conditions: 10^-6 M; read-out: ACAT Inhibitory Rate (%)
T1 construct: small intestine mucosal microsome fraction of a 6-week-old male Sprague-Dawley rat; from tissue; host or cells: rat small intestine mucosa, microsome fraction
T1 sequence (Q7TQM4 1-524): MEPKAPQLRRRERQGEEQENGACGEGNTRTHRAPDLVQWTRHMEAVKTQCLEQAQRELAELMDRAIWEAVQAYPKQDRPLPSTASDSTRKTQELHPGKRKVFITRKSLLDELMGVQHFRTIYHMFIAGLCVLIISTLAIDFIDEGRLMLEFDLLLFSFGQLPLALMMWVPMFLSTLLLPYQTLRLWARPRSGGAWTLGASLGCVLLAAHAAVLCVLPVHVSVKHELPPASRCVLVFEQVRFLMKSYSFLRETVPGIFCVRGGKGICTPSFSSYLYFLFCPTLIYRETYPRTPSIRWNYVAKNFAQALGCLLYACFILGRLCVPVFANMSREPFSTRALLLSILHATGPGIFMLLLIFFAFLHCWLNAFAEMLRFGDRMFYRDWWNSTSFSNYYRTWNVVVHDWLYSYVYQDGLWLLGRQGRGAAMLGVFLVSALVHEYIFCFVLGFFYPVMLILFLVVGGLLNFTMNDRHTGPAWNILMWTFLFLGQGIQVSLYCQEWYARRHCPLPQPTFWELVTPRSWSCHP
Procedure: An ACAT enzyme preparation was prepared from a small intestine mucosal microsome fraction of a 6-week-old male Sprague-Dawley rat, previously fasted for 20 hours, in accordance with the method described by Heider et al. in the Journal of Lipid Research, Vol. 24, page 1127 (1982).
ACAT activity was determined by measuring the amount of labeled cholesterol ester produced from [1-^14 C]-oleoyl-CoA and endogenous cholesterol, in accordance with the method of Helgerud et al. [Journal of Lipid Research, Vol. 22, page 271 (1981)].

In order of rising inhibition at 1 µM:
1. Cc1cc2c(-c3ccccc3)c(CC(=O)Nc3c(C(C)C)cccc3C(C)C)n(C)c(=O)c2cc1C [Example 47, N-[2,6-Bis(1-methylethyl)phenyl]-1,2-dihydro-2,6,7-trimethyl-1-oxo-4-phenyl-3-isoquinolineacetamide]  90.3%
2. Cc1cccc(NC(=O)[C@H]2[C@H](c3ccc(F)cc3)c3ccccc3C(=O)N2C)c1 (relative stereo) [Example 9, 3,4-trans-4-(4-Fluorophenyl)-1,2,3,4-tetrahydro-2-methyl-N-(3-methylphenyl)-1-oxo-3-isoquinolinecarboxamide]  90.3%
3. CN1C(=O)[C@@H](CC(=O)Nc2ccc(F)cc2F)[C@H](c2ccccc2)c2cc(Cl)ccc21 (relative stereo) [Example 27, 3,4-trans-6-Chloro-N-(2,4-difluorophenyl)-1,2,3,4-tetrahydro-1-methyl-2-oxo-4-phenyl-3-quinolineacetamide]  92%
4. Cc1cc2c(cc1C)N(C)C(=O)[C@@H](C(=O)Nc1ccc(F)cc1F)[C@@H]2c1ccccc1Cl (relative stereo) [Example 10, 3,4-trans-4-(2-Chlorophenyl)-N-(2,4-difluorophenyl)-1,2,3,4-tetrahydro-1,6,7-trimethyl-2-oxo-3-quinolinecarboxamide]  93.3%
5. CC(C)c1ccc2c(c1)[C@@H](c1ccc(F)cc1)[C@H](C(=O)Nc1c(C(C)C)cccc1C(C)C)C(=O)O2 (relative stereo) [Example 13, 3,4-trans-N-[2,6-Bis(1-methylethyl)phenyl]-4-(4-fluorophenyl)-3,4-dihydro-6-(1-methylethyl)-2-oxo-2H-1-benzopyran-3-carboxamide]  93.8%
6. CC(C)c1cccc(C(C)C)c1NC(=O)CC1C(=O)N(C)c2ccc(Cl)cc2N1c1ccccc1 (centres unmarked) [Example 42, N-[2,6-Bis(1-methylethyl)phenyl]-6-chloro-1,2,3,4-tetrahydro-1-methyl-2-oxo-4-phenyl-3-quinoxalineacetamide]  96.6%
7. COc1cc(OC)c(NC(=O)C[C@@H]2C(=O)N(C)c3ccc(Cl)cc3[C@H]2c2ccccc2)c(OC)c1 (relative stereo) [Example 25, 3,4-trans-6-Chloro-1,2,3,4-tetrahydro-1-methyl-2-oxo-4-phenyl-N-(2,4,6-trimethoxyphenyl)-3-quinolineacetamide]  96.9%
8. CC(C)c1cccc(C(C)C)c1NC(=O)CC1=C(c2ccccc2)c2cc(Cl)ccc2N(C)C1 [Example 99, N-[2,6-Bis(1-methylethyl)phenyl]-6-chloro-1,2-dihydro-1-methyl-4-phenyl-3-quinolineacetamide]  97%
9. Cc1cc2c(cc1C)N(C)C(=O)[C@@H](CC(=O)Nc1c(C(C)C)cccc1C(C)C)[C@@H]2c1ccccc1Cl (relative stereo) [Example 20, 3,4-trans-N-[2,6-Bis(1-methylethyl)phenyl]-4-(2-chlorophenyl)-1,2,3,4-tetrahydro-1,6,7-trimethyl-2-oxo-3-quinolineacetamide]  97.8%
10. Cc1cccc(C(C)C)c1NC(=O)C[C@H]1C(=O)N(C)c2ccc(Cl)cc2[C@H]1c1ccccc1 (relative stereo) [Example 22, 3,4-cis-6-Chloro-1,2,3,4-tetrahydro-1-methyl-N-[2-methyl-6-(1-methylethyl)phenyl]-2-oxo-4-phenyl-3-quinolineacetamide]  97.9%
11. COc1ccccc1-c1c(CC(=O)Nc2c(C(C)C)cccc2C(C)C)oc(=O)c2ccccc12 [Example 56, N-[2,6-Bis(1-methylethyl)phenyl]-4-(2-methoxyphenyl)-1-oxo-1H-2-benzopyran-3-acetamide]  98.1%
12. COc1cc(OC)c(NC(=O)CC2C(=O)N(C)c3ccc(Cl)cc3N2c2ccccc2)c(OC)c1 (centres unmarked) [Example 43, 6-Chloro-1,2,3,4-tetrahydro-1-methyl-2-oxo-4-phenyl-N-(2,4,6-trimethoxyphenyl)-3-quinoxalineacetamide]  98.2%
13. CCOc1cc(F)cc(OCC)c1NC(=O)Cc1c(-c2ccccc2C)c2cc(Cl)ccc2oc1=O [Example 89, 6-Chloro-N-(2,6-diethoxy-4-fluorophenyl)-4-(2-methylphenyl)-2-oxo-2H-1-benzopyran-3-acetamide]  98.2%
14. CC(C)c1cccc(C(C)C)c1NC(=O)Cc1c(-c2ccccc2C(F)(F)F)c2cc(Cl)ccc2oc1=O [Example 94, N-[2,6-Bis(1-methylethyl)phenyl]-6-chloro-2-oxo-4-(2-trifluoromethylphenyl)-2H-1-benzopyran-3-acetamide]  98.6%
15. CCOc1cccc(OCC)c1NC(=O)Cc1c(-c2ccccc2OC)c2cc(Cl)ccc2oc1=O [Example 93, 6-Chloro-N-(2,6-diethoxyphenyl)-4-(2-methoxyphenyl)-2-oxo-2H-1-benzopyran-3-acetamide]  99%
16. CC(C)c1cccc(C(C)C)c1NC(=O)CC1C(=O)N(C)c2ccc(Cl)cc2C1(C)c1ccccc1 (centres unmarked) [Example 19, N-[2,6-Bis-(1-methylethyl)phenyl]-6-chloro-1,2,3,4-tetrahydro-1,4-dimethyl-2-oxo-4-phenyl-3-quinolineacetamide]  99.1%
17. CCOc1cccc(OCC)c1NC(=O)Cc1c(-c2ccccc2C(F)(F)F)c2cc(Cl)ccc2oc1=O [Example 95, 6-Chloro-N-(2,6-diethoxyphenyl)-2-oxo-4-(2-trifluoromethylphenyl)-2H-1-benzopyran-3-acetamide]  99.1%
18. COc1cccc(OC)c1NC(=O)Cc1c(-c2ccccc2)c2cc(Cl)ccc2oc1=O [Example 79, 6-Chloro-N-(2,6-dimethoxyphenyl)-2-oxo-4-phenyl-2H-1-benzopyran-3-acetamide]  99.1%
19. COc1cccc(OC)c1NC(=O)Cc1oc(=O)c2ccc(Cl)cc2c1-c1ccccc1 [Example 76, 6-Chloro-N-(2,6-dimethoxyphenyl)-1-oxo-4-phenyl-1H-2-benzopyran-3-acetamide]  99.3%
20. CCOc1cc(F)cc(OCC)c1NC(=O)Cc1c(-c2ccccc2C(F)(F)F)c2cc(Cl)ccc2oc1=O [Example 96, 6-Chloro-N-(2,6-diethoxy-4-fluorophenyl)-2-oxo-4-(2-trifluoromethylphenyl)-2H-1-benzopyran-3-acetamide]  99.3%
21. Cc1cc(C)c(NC(=O)Cc2c(-c3ccccc3C)c3cc(Cl)ccc3oc2=O)c(C)c1 [Example 87, 6-Chloro-4-(2-methylphenyl)-2-oxo-N-(2,4,6-trimethylphenyl)-2H-1-benzopyran-3-acetamide]  99.3%
22. Cc1ccccc1-c1c(CC(=O)Nc2ccc(F)cc2F)c(=O)oc2ccc(Cl)cc12 [Example 83, 6-Chloro-N-(2,4-difluorophenyl)-4-(2-methylphenyl)-2-oxo-2H-1-benzopyran-3-acetamide]  99.4%
23. Cc1cccc(C(C)C)c1NC(=O)C[C@@H]1C(=O)N(C)c2ccc(Cl)cc2[C@H]1c1ccccc1 (relative stereo) [Example 23, 3,4-trans-6-Chloro-1-methyl-N-[2-methyl-6-(1-methylethyl)phenyl]-2-oxo-4-phenyl-1,2,3,4-tetrahydro-3-quinolineacetamide]  99.4%
24. Cc1ccc2c(c1)N(c1ccccc1)C(CC(=O)Nc1c(C(C)C)cccc1C(C)C)C(=O)N2C (centres unmarked) [Example 64, N-[2,6-Bis(1-methylethyl)phenyl]-1,2,3,4-tetrahydro-1,6-dimethyl-2-oxo-4-phenyl-3-quinoxalineacetamide]  99.5%
25. CCOc1cccc(OCC)c1NC(=O)Cc1c(-c2ccccc2C)c2cc(Cl)ccc2oc1=O [Example 88, 6-Chloro-N-(2,6-diethoxyphenyl)-4-(2-methylphenyl)-2-oxo-2H-1-benzopyran-3-acetamide]  99.7%
26. Cc1ccc2c(c1)[C@@H](c1ccccc1)[C@H](CC(=O)Nc1c(C(C)C)cccc1C(C)C)C(=O)N2C (relative stereo) [Example 60, 3,4-trans-N-[2,6-Bis(1-methylethyl)phenyl]-1,2,3,4-tetrahydro-1,6-dimethyl-2-oxo-4-phenyl-3-quinolineacetamide]  99.9%
